Source: patent publication US12522612B2, “PDE4 inhibitors, pharmaceutical compositions, and therapeutic applications” (BioTheryX, Inc., priority 2019, dated 2026)

Key:
[1] = tested on: TNF-α; assay: Cell-based TNF-α inhibition assay in LPS-induced PBMCs (Meso Scale); conditions: PBMC, PBMCs pretreated 1 h, LPS 100 ng/mL 18-24 h, relative to stimulated DMSO control; for inhibition at 1 µM: compound concentration 1 μM; for inhibition at 0.1 µM: compound concentration 0.1 μM
Outline: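 Thawed human PBMCs (200,000/well) in RPMI/10% FBS were pretreated with compound or DMSO for 1 h, then stimulated with LPS (100 ng/mL) for 18-24 h. Supernatant TNF-α was measured by Meso Scale; activity expressed as percent of stimulated DMSO control (percent inhibition).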

[2] = molecular target: T1, PDE4B (Homo sapiens, UniProt Q07343); assay: Protein degradation assay in A549 cells, western blot, PDE4B; type: cell-based; conditions: 24 h treatment, read-out: PDE4B degradation relative to DMSO
T1 construct: Whole cell extracts were prepared using an immunoprecipitation (IP) lysis buffer; endogenous in cells; host or cells: A549
T1 sequence (Q07343 whole entry): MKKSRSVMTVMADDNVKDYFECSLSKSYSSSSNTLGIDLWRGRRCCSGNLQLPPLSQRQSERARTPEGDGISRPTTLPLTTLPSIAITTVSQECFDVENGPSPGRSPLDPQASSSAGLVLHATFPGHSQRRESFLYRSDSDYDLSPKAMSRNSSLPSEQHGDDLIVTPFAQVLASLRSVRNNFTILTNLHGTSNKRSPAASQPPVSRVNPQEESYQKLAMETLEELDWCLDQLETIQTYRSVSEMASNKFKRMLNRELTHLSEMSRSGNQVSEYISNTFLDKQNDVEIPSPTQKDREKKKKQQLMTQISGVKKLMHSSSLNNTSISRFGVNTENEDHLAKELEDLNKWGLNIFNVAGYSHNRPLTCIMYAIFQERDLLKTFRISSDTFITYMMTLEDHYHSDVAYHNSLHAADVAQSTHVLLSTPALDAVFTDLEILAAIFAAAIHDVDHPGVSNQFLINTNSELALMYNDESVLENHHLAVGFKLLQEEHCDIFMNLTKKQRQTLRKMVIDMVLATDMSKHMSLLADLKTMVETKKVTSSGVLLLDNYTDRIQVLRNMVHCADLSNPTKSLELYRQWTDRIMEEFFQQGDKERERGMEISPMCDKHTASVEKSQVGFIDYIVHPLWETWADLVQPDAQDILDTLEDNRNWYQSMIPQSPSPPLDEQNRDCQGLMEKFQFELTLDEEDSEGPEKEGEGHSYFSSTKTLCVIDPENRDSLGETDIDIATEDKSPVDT
Procedure: (§1) A549 cells were grown in RPMI 1640 media supplemented with 10% fetal bovine serum, streptomycin, and penicillin. The cells were plated in 6-well plates in the growth media. The next day, fresh growth media were replaced on the cells. The cells were then treated with a compound for 24 h at predetermined concentrations. Whole cell extracts were prepared using an immunoprecipitation (IP) lysis buffer. Briefly, the cells were washed once in PBS, and the cell pellets were resuspended in the IP lysis buffer and incubated for 15 min on ice. Cells debris was removed by centrifugation and the cleared whole cell lysates were transferred to new tubes for further analysis.
(§2) For a western blot analysis, the whole cell protein extracts were separated on 4-12% SDS-polyacrylamide gels, transferred to nitrocellulose, and probed with primary antibodies. Membranes were subsequently washed and probed with IRDYE® secondary antibodies. The signals were detected using an ODYSSEY® Imaging System. The antibodies used in the assay included anti-PDE4B antibody; anti-PDE4D antibodies (top, bottom, and short isoform); β-actin mouse monoclonal antibody; IRDYE® 680RD goat anti-rabbit antibody; and IRDYE® 800CW goat anti-mouse antibody. Compounds B2 to B4, B18, B49 to B52, B76, B77, B79, B81 to B83, B88, B89, and B91 were determined to be able to degradate PDE4B as high as about 50% relative to DMSO.

[3] = tested on: PDE4D short isoform; assay: Protein degradation assay in A549 cells, western blot, PDE4D; type: cell-based; conditions: 24 h treatment, same conditions
Procedure: as §1, §2

Dmax [2] [%] | Structure (SMILES) | inhibition at 1 µM [1] [%] | inhibition at 0.1 µM [1] [%] | PDE4D degradation (result in words) [3]
≤ 50 | COc1ccc(N2Cc3ccccc3C2=O)cc1OCCCCCCCN1CCC(c2cc(F)cc3c2CN(C2CCC(=O)NC2=O)C3=O)CC1 (centres unmarked) [Compound B49, 3-(6-Fluoro-4-(1-(7-(2-methoxy-5-(1-oxoisoindolin-2-yl)phenoxy)heptyl)piperidin-4-yl)-1-oxoisoindolin-2-yl)piperidine-2,6-dione] | < 20 |  | 
≤ 50 | O=C1CCC(N2Cc3c(cc(F)cc3C3CCN(CCCCCCCOc4ccc(N5Cc6ccccc6C5=O)cc4OC4CCCC4)CC3)C2=O)C(=O)N1 (centres unmarked) [Compound B50, 3-(4-(1-(7-(2-(Cyclopentyloxy)-4-(1-oxoisoindolin-2-yl)phenoxy)heptyl)piperidin-4-yl)-6-fluoro-1-oxoisoindolin-2-yl)piperidine-2,6-dione] | < 20 |  | 
≤ 50 | COc1ccc(N2C(=O)c3ccccc3C2=O)cc1OCCCCCCCN1CCC(c2cc(F)cc3c2CN(C2CCC(=O)NC2=O)C3=O)CC1 (centres unmarked) [Compound B51, 2-(3-((7-(4-(2-(2,6-Dioxopiperidin-3-yl)-6-fluoro-1-oxoisoindolin-4-yl)piperidin-1-yl)heptyl)oxy)-4-methoxyphenyl)isoindoline-1,3-dione] | 20 to 40 |  | 
≤ 50 | COc1ccc(N2C(=O)c3ccc(N)cc3C2=O)cc1OCCCCCCCN1CCC(c2cc(F)cc3c2CN(C2CCC(=O)NC2=O)C3=O)CC1 (centres unmarked) [Compound B52, 5-Amino-2-(3-((7-(4-(2-(2,6-dioxopiperidin-3-yl)-6-fluoro-1-oxoisoindolin-4-yl)piperidin-1-yl)heptyl)oxy)-4-methoxyphenyl)isoindoline-1,3-dione] | < 20 |  | 
≤ 50 | O=C1CCC(N2Cc3c(cc(F)cc3C3CCN(CCCCCCCOc4ccc(N5Cc6sccc6C5=O)cc4OC4CCCC4)CC3)C2=O)C(=O)N1 (centres unmarked) [Compound B91, 3-(4-(1-(7-(2-(Cyclopentyloxy)-4-(4-oxo-4,6-dihydro-5H-thieno[2,3-c]pyrrol-5-yl)phenoxy)heptyl)piperidin-4-yl)-6-fluoro-1-oxoisoindolin-2-yl)piperidine-2,6-dione] |  |  | 

The remaining lines, values behind:

Structure (SMILES) | Dmax [2] [%] | inhibition at 1 µM [1] [%] | inhibition at 0.1 µM [1] [%] | PDE4D degradation (result in words) [3]
CCOc1cc([C@@H](CS(C)(=O)=O)N2C(=O)c3cc(CCCCCCCN4CCC(c5cc(F)cc6c5CN(C5CCC(=O)NC5=O)C6=O)CC4)cc(NC(C)=O)c3C2=O)ccc1OC (stereo partly drawn) [Compound B2, N-(6-(7-(4-(2-(2,6-dioxopiperidin-3-yl)-6-fluoro-1-oxoisoindolin-4-yl)piperidin-1-yl)heptyl)-2-((S)-1-(3-ethoxy-4-methoxyphenyl)-2-(methylsulfonyl)ethyl)-1,3-dioxoisoindolin-4-yl)acetamide] | ≤ 50 | ≥ 60 |  | 
O=C1CCC(N2Cc3c(cc(F)cc3C3CCN(CCCCCCCN(C(=O)c4ccc(OC(F)F)c(OCC5CC5)c4)c4c(Cl)cncc4Cl)CC3)C2=O)C(=O)N1 (centres unmarked) [Compound B3, 3-(Cyclopropylmethoxy)-N-(3,5-dichloropyridin-4-yl)-4-(difluoromethoxy)-N-(7-(4-(2-(2,6-dioxopiperidin-3-yl)-6-fluoro-1-oxoisoindolin-4-yl)piperidin-1-yl)heptyl)benzamide] | ≤ 50 | < 20 | < 20 | 
O=C1CCC(N2Cc3c(cc(F)cc3C3CCN(CCCCCCCOc4cc(C(=O)Nc5c(Cl)cncc5Cl)ccc4OC(F)F)CC3)C2=O)C(=O)N1 (centres unmarked) [Compound B4, N-(3,5-dichloropyridin-4-yl)-4-(difluoromethoxy)-3-((7-(4-(2-(2,6-dioxopiperidin-3-yl)-6-fluoro-1-oxoisoindolin-4-yl)piperidin-1-yl)heptyl)oxy)benzamide] | ≤ 50 | ≥ 60 | ≥ 60 | 
O=C1CCC(N2Cc3c(C#CC4CCN(C(=O)CCCCOc5cc(C(=O)Nc6c(Cl)cncc6Cl)ccc5OC(F)F)CC4)cccc3C2=O)C(=O)N1 (centres unmarked) [Compound B18, N-(3,5-Dichloropyridin-4-yl)-4-(difluoromethoxy)-3-((5-(4-((2-(2,6-dioxopiperidin-3-yl)-1-oxoisoindolin-4-yl)ethynyl)piperidin-1-yl)-5-oxopentyl)oxy)benzamide] | ≤ 50 | ≥ 60 | ≥ 60 | 
Cc1ncsc1-c1ccc(CNC(=O)[C@@H]2C[C@@H](O)CN2C(=O)[C@@H](NC(=O)CCCCCCCCCCOc2cc(C(=O)Nc3c(Cl)cncc3Cl)ccc2OC(F)F)C(C)(C)C)cc1 [Compound B76, (2S,4R)-1-((S)-2-(11-(5-((3,5-Dichloropyridin-4-yl)carbamoyl)-2-(difluoromethoxy)phenoxy)undecanamido)-3,3-dimethylbutanoyl)-4-hydroxy-N-(4-(4-methylthiazol-5-yl)benzyl)pyrrolidine-2-carboxamide] | ≤ 50 | ≥ 60 | ≥ 60 | 
CCOc1cc([C@@H](CS(C)(=O)=O)N2C(=O)c3cccc(NC(=O)CCCCCCCCN4CCC(c5cc(F)cc6c5CN(C5CCC(=O)NC5=O)C6=O)CC4)c3C2=O)ccc1OC (stereo partly drawn) [Compound B77, 9-(4-(2-(2,6-Dioxopiperidin-3-yl)-6-fluoro-1-oxoisoindolin-4-yl)piperidin-1-yl)-N-(2-((S)-1-(3-ethoxy-4-methoxyphenyl)-2-(methylsulfonyl)ethyl)-1,3-dioxoisoindolin-4-yl)nonanamide] | ≤ 50 | ≥ 60 | 40 to 60 | 
CCOc1cc([C@@H](CS(C)(=O)=O)N2C(=O)c3cc(CCCCCCCCCCCCN4CCC(c5cc(F)cc6c5CN(C5CCC(=O)NC5=O)C6=O)CC4)cc(NC(C)=O)c3C2=O)ccc1OC (stereo partly drawn) [Compound B79, N-(6-(12-(4-(2-(2,6-Dioxopiperidin-3-yl)-6-fluoro-1-oxoisoindolin-4-yl)piperidin-1-yl)dodecyl)-2-((S)-1-(3-ethoxy-4-methoxyphenyl)-2-(methylsulfonyl)ethyl)-1,3-dioxoisoindolin-4-yl)acetamide] | ≤ 50 | ≥ 60 | ≥ 60 | 
O=C1CCC(N2Cc3c(cc(F)cc3C3CCN(CCCOc4cc(C(=O)Nc5c(Cl)cncc5Cl)ccc4OC(F)F)CC3)C2=O)C(=O)N1 (centres unmarked) [Compound B83, N-(3,5-Dichloropyridin-4-yl)-4-(difluoromethoxy)-3-(3-(4-(2-(2,6-dioxopiperidin-3-yl)-6-fluoro-1-oxoisoindolin-4-yl)piperidin-1-yl)propoxy)benzamide] | ≤ 50 | 20 to 40 |  | 
CCOc1cc([C@@H](CS(C)(=O)=O)N2C(=O)c3cccc(NC(C)=O)c3C2=O)ccc1OC [apremilast] |  |  |  | did not degradate the PDE4D
